{"source": "ChEMBL document CHEMBL3608204", "about": "“neo-Clerodane Diterpenoids from Scutellaria barbata and Their Inhibitory Effects on LPS-Induced Nitric Oxide Production” (J Nat Prod, 2015)", "key": {"RAW264.7 [1]": {"test_system": "RAW264.7", "experiment": "Inhibition of LPS-induced nitric oxide production in mouse RAW264.7 cells after 24 hrs by Griess reaction", "format": "functional, cell-based", "settings": "RAW264.7, 24 h"}, "RAW264.7 [2]": {"test_system": "RAW264.7", "experiment": "Cytotoxicity against mouse RAW264.7 cells assessed as cell viability at IC50 by colorimetric assay", "format": "cell-based"}}, "note": "pIC50: −log10 of the molar value."}
{"compound": "CC1=CC[C@@H](OC(=O)c2ccccc2)C2[C@@]1(C)[C@@H](OC(=O)c1cccnc1)[C@H](O)[C@]1(C)O[C@@]3(CC[C@]21C)COC(=O)C3", "note": "(stereo not given in full)", "values": [{"measurement": "pIC50", "setting": "RAW264.7 [1]", "value": 4.47}, {"measurement": "Activity", "setting": "RAW264.7 [2]", "value": "Non-toxic"}]}
{"compound": "CC1=CC[C@@H](OC(=O)c2ccccc2)C2[C@@]1(C)[C@@H](OC(=O)c1cccnc1)[C@H](OC(=O)c1ccccc1)[C@]1(C)O[C@]3(CC[C@]21C)COC(=O)C3", "note": "(stereo not given in full)", "values": [{"measurement": "pIC50", "setting": "RAW264.7 [1]", "value": "< 4.30"}, {"measurement": "Activity", "setting": "RAW264.7 [2]", "value": "Non-toxic"}]}
{"compound": "CC(=O)O[C@H]1[C@H](OC(C)=O)[C@]2(C)O[C@]3(CC[C@]2(C)C2[C@H](OC(=O)c4ccccc4)CC=C(C)[C@@]21C)COC(=O)C3", "note": "(stereo not given in full)", "values": [{"measurement": "pIC50", "setting": "RAW264.7 [1]", "value": "< 4.30"}, {"measurement": "Activity", "setting": "RAW264.7 [2]", "value": "Non-toxic"}]}
{"compound": "C=C1CCCC2[C@@]1(C)[C@@H](OC(=O)c1ccccc1)[C@H](O)[C@]1(C)O[C@]3(COC(=O)C3)C[C@H](OC(=O)c3ccccc3)[C@]21C", "note": "(stereo not given in full)", "values": [{"measurement": "pIC50", "setting": "RAW264.7 [1]", "value": 4.69}, {"measurement": "Activity", "setting": "RAW264.7 [2]", "value": "Non-toxic"}]}
{"compound": "CC1=CCCC2[C@@]1(C)[C@@H](OC(=O)c1cccnc1)[C@H](O)[C@]1(C)O[C@]3(COC(=O)C3)C[C@H](OC(=O)c3cccnc3)[C@]21C", "note": "(stereo not given in full)", "values": [{"measurement": "pIC50", "setting": "RAW264.7 [1]", "value": "< 4.30"}, {"measurement": "Activity", "setting": "RAW264.7 [2]", "value": "Non-toxic"}]}
{"compound": "CC1=CCCC2[C@@]1(C)[C@@H](OC(=O)c1cccnc1)[C@H](OC(=O)c1ccccc1)[C@](C)(O)[C@]2(C)/C=C/C1=CC(=O)OC1", "note": "(stereo not given in full)", "values": [{"measurement": "pIC50", "setting": "RAW264.7 [1]", "value": 4.64}, {"measurement": "Activity", "setting": "RAW264.7 [2]", "value": "Non-toxic"}]}
{"compound": "CC1=CCCC2[C@@]1(C)[C@@H](OC(=O)c1cccnc1)[C@H](OC(=O)c1cccnc1)[C@](C)(O)[C@]2(C)/C=C/C1=CC(=O)OC1", "note": "(stereo not given in full)", "values": [{"measurement": "pIC50", "setting": "RAW264.7 [1]", "value": 4.58}, {"measurement": "Activity", "setting": "RAW264.7 [2]", "value": "Non-toxic"}]}
{"compound": "CC1=CCCC2[C@@]1(C)[C@@H](OC(=O)c1ccccc1)[C@H](OC(=O)c1cccnc1)[C@](C)(O)[C@]2(C)/C=C/C1=CC(=O)OC1", "note": "(stereo not given in full)", "values": [{"measurement": "pIC50", "setting": "RAW264.7 [1]", "value": 4.56}, {"measurement": "Activity", "setting": "RAW264.7 [2]", "value": "Non-toxic"}]}
{"compound": "CC(=O)O[C@@H](CC1=C(O)C(=O)OC1)[C@]1(C)C2CCC=C(C)[C@]2(C)[C@@H](OC(=O)c2cccnc2)[C@H](O)[C@]1(C)O", "note": "(stereo not given in full)", "values": [{"measurement": "pIC50", "setting": "RAW264.7 [1]", "value": "< 4.30"}, {"measurement": "Activity", "setting": "RAW264.7 [2]", "value": "Non-toxic"}]}
{"compound": "CC(=O)O[C@@H](CC1=C(O)C(=O)OC1)[C@]1(C)C2CCC=C(C)[C@]2(C)[C@@H](OC(=O)c2cccnc2)[C@H](OC(=O)c2cccnc2)[C@]1(C)O", "note": "(stereo not given in full)", "values": [{"measurement": "pIC50", "setting": "RAW264.7 [1]", "value": "< 4.30"}, {"measurement": "Activity", "setting": "RAW264.7 [2]", "value": "Non-toxic"}]}
{"compound": "CC(=O)O[C@@H](CC1=C(O)C(=O)OC1)[C@]1(C)C2CCC=C(C)[C@]2(C)[C@@H](OC(=O)c2cccnc2)[C@H](OC(=O)c2ccccc2)[C@]1(C)O", "note": "(stereo not given in full)", "values": [{"measurement": "pIC50", "setting": "RAW264.7 [1]", "value": "< 4.30"}, {"measurement": "Activity", "setting": "RAW264.7 [2]", "value": "Non-toxic"}]}
{"compound": "CC1=CC[C@@H](OC(=O)c2cccnc2)C2[C@@]1(C)[C@@H](OC(=O)c1cccnc1)[C@H](OC(=O)c1ccccc1)[C@]1(C)O[C@]3(CC[C@]21C)COC(=O)C3", "note": "(stereo not given in full)", "values": [{"measurement": "pIC50", "setting": "RAW264.7 [1]", "value": 4.67}, {"measurement": "Activity", "setting": "RAW264.7 [2]", "value": "Non-toxic"}]}
{"compound": "CC1=CC[C@@H](OC(=O)c2ccccc2)C2[C@@]1(C)[C@@H](OC(=O)c1cccnc1)[C@H](OC(=O)c1cccnc1)[C@]1(C)O[C@]3(CC[C@]21C)COC(=O)C3", "note": "(stereo not given in full)", "values": [{"measurement": "pIC50", "setting": "RAW264.7 [1]", "value": 4.69}, {"measurement": "Activity", "setting": "RAW264.7 [2]", "value": "Non-toxic"}]}
{"compound": "CC1=CC[C@@H](OC(=O)c2cccnc2)C2[C@@]1(C)[C@@H](OC(=O)c1cccnc1)C[C@]1(C)O[C@@]3(CC[C@]21C)COC(=O)C3", "note": "(stereo not given in full)", "values": [{"measurement": "pIC50", "setting": "RAW264.7 [1]", "value": 4.45}, {"measurement": "Activity", "setting": "RAW264.7 [2]", "value": "Non-toxic"}]}
{"compound": "C[C@@]12[C@@H](OC(=O)c3cccnc3)[C@H](OC(=O)c3ccccc3)[C@](C)(O)[C@](C)(/C=C/C3=CC(=O)OC3)[C@H]1CC=C[C@]2(C)O", "note": "[SCUTEBARBATINE F]", "values": [{"measurement": "pIC50", "setting": "RAW264.7 [1]", "value": "< 4.30"}, {"measurement": "Activity", "setting": "RAW264.7 [2]", "value": "Non-toxic"}]}
